# Molecular target: T1, ligand binding domain of human ROR gamma (Homo sapiens, UniProt P51449)
# T1 construct: NM_001001523; expressed in transfected cells; host or cells: HEK293T
# T1 sequence (P51449 247-497 isoform P51449-2): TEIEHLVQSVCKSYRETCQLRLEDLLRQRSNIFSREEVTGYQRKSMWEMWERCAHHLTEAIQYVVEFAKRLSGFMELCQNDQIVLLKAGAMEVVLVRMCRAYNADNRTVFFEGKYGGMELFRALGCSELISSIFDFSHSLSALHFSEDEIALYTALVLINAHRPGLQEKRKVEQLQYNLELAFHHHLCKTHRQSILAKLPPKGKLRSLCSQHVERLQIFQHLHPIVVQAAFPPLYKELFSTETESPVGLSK
# Test: ROR gamma reporter gene assay (GAL4-RORγ LBD luciferase, Dual-Glo)
# Format: cell-based
# Settings: HEK293T cells transfected with pM-ROR gamma, 8 concentrations 3.5 nM to 10.5 μM, 24 h incubation; read-out: result (pIC50, inhibition of RORγ transcriptional activity) (converted)
# Summary of the method: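 Transient GAL4-RORγ LBD (aa 247-497) / 5×UAS-luc / pRL-CMV cotransfection in HEK293T, charcoal-stripped 10% FBS. 8-pt dose, 3.5 nM–10.5 μM, 0.075% DMSO final. 24 h, 37 °C, 5% CO2. Dual-Glo firefly/renilla readout; pIC50 from curve fit.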
row,SMILES,IC50
1,"C[C@]1(C(=O)O)CC[C@H](n2ncc(C(=O)N(CC(=O)c3c(Cl)cc(Cl)cc3Cl)CC3CC4(CC4)C3)c2C(F)(F)F)CC1 [Example 234, trans-4-(4-((2-oxo-2-(2,4,6-trichlorophenyl)ethyl)-(spiro[2.3]hexan-5-ylmethyl)carbamoyl)-5-(trifluoromethyl)pyrazol-1-yl)-1-methylcyclohexane-1-carboxylic acid]",10000 pM
2,"C[C@]1(C(=O)O)CC[C@H](n2ncc(C(=O)N(CC(=O)c3c(Cl)cccc3C(F)(F)F)CC3CC4(CC4)C3)c2C(F)(F)F)CC1 [Example 235, trans-4-(4-((2-(2-chloro-6-(trifluoromethyl)phenyl)-2-oxoethyl)-(spiro[2.3]hexan-5-ylmethyl)carbamoyl)-5-(trifluoromethyl)pyrazol-1-yl)-1-methylcyclohexane-1-carboxylic acid]",13200 pM
3,"Cc1cc(Cl)c(C(=O)CN(C(=O)c2cnn(C34CCC(C(=O)O)(CC3)CC4)c2C(F)(F)F)C2CCC(C)(C)CC2)c(Cl)c1 [Example 236, 4-(4-((2-(2,6-dichloro-4-methylphenyl)-2-oxoethyl)-(4,4-dimethylcyclohexyl)carbamoyl)-5-(trifluoromethyl)pyrazol-1-yl)bicyclo[2.2.2]octane-1-carboxylic acid]",10500 pM
4,"Cc1cc(Cl)c(C(=O)CN(CC2CC(C)(C)C2)C(=O)c2cnn(C34CCC(C(=O)O)(CC3)CC4)c2C(F)(F)F)c(Cl)c1 [Example 237, 4-(4-((2-(2,6-dichloro-4-methylphenyl)-2-oxoethyl)-((3,3-dimethylcyclobutyl)methyl)carbamoyl)-5-(trifluoromethyl)pyrazol-1-yl)bicyclo[2.2.2]octane-1-carboxylic acid]",< 3470 pM
5,"Cc1cc(Cl)c(C(=O)CN(CC2CC(C)(C)C2)C(=O)c2cnn([C@H]3CC[C@](C)(C(=O)O)CC3)c2C(F)(F)F)c(Cl)c1 [Example 238, trans-4-(4-((2-(2,6-dichloro-4-methylphenyl)-2-oxoethyl)-((3,3-dimethylcyclobutyl)methyl)carbamoyl)-5-(trifluoromethyl)pyrazol-1-yl)-1-methylcyclohexane-1-carboxylic acid]",4370 pM
6,"CC1(C)CCC(CN(CC(=O)c2c(Cl)cc(Cl)cc2Cl)C(=O)c2cnn([C@H]3CC[C@](C)(C(=O)O)CC3)c2C(F)(F)F)CC1 [Example 239, trans-4-(4-((4,4-dimethylcyclohexyl)methyl-(2-oxo-2-(2,4,6-trichlorophenyl)ethyl)carbamoyl)-5-(trifluoromethyl)pyrazol-1-yl)-1-methylcyclohexane-1-carboxylic acid]",< 3470 pM
7,"CC1(C)[C@@H]2C[C@H](N(CC(=O)c3c(Cl)cc(F)cc3Cl)C(=O)c3cnn(C45CCC(C(=O)O)(CC4)CC5)c3C(F)(F)F)C[C@@H]21 [Example 240, 4-(4-((2-(2,6-dichloro-4-fluorophenyl)-2-oxoethyl)-((1R,3r,5S)-6,6-dimethyl-3-bicyclo[3.1.0]hexanyl)carbamoyl)-5-(trifluoromethyl)pyrazol-1-yl)bicyclo(2.2.2)octane-1-carboxylic acid]",5500 pM
8,"CC1(C)[C@@H]2C[C@H](N(CC(=O)c3c(Cl)cc(Cl)cc3Cl)C(=O)c3cnn(C45CCC(C(=O)O)(CC4)CC5)c3C(F)(F)F)C[C@@H]21 [Example 241, 4-(4-(((1R,3r,5S)-6,6-dimethyl-3-bicyclo[3.1.0]hexanyl)-(2-oxo-2-(2,4,6-trichlorophenyl)ethyl)carbamoyl)-5-(trifluoromethyl)pyrazol-1-yl)bicyclo(2.2.2)octane-1-carboxylic acid]",5130 pM
9,"CC1(C)CCC(N(CC(=O)c2c(Cl)cccc2C(F)(F)F)C(=O)c2cnn(C34CCC(C(=O)O)(CC3)CC4)c2C(F)(F)F)CC1 [Example 242, 4-(4-((2-(2-chloro-6-(trifluoromethyl)phenyl)-2-oxoethyl)-(4,4-dimethylcyclohexyl)carbamoyl)-5-(trifluoromethyl)pyrazol-1-yl)bicyclo[2.2.2]octane-1-carboxylic acid]",31600 pM
10,"COc1cccc(Cl)c1C(=O)CN(C(=O)c1cnn(C23CCC(C(=O)O)(CC2)CC3)c1C(F)(F)F)C1CCC(C)(C)CC1 [Example 243, 4-(4-((2-(2-chloro-6-methoxyphenyl)-2-oxoethyl)-(4,4-dimethylcyclohexyl)carbamoyl)-5-(trifluoromethyl)pyrazol-1-yl)bicyclo[2.2.2]octane-1-carboxylic acid]",55000 pM
11,"CC12CCC(CN(CC(=O)c3c(Cl)cc(F)cc3Cl)C(=O)c3cnn([C@H]4CC[C@](C)(C(=O)O)CC4)c3C(F)(F)F)(CC1)O2 [Example 244, trans-4-(4-((2-(2,6-dichloro-4-fluorophenyl)-2-oxoethyl)-((1-methyl-7-oxabicyclo[2.2.1]heptan-4-yl)methyl)carbamoyl)-5-(trifluoromethyl)pyrazol-1-yl)-1-methylcyclohexane-1-carboxylic acid]",6920 pM
12,"CC(C)(C)CN(CC(=O)c1c(Cl)cc(F)cc1Cl)C(=O)c1cnn(C23CCC(C(=O)O)(CC2)CC3)c1C(F)(F)F [Example 245, 4-(4-((2-(2,6-dichloro-4-fluorophenyl)-2-oxoethyl)-(2,2-dimethylpropyl)carbamoyl)-5-(trifluoromethyl)pyrazol-1-yl)bicyclo[2.2.2]octane-1-carboxylic acid]",8910 pM
13,"CC(C)(C)CN(CC(=O)c1c(Cl)cc(Cl)cc1Cl)C(=O)c1cnn(C23CCC(C(=O)O)(CC2)CC3)c1C(F)(F)F [Example 246, 4-(4-(2,2-dimethylpropyl-(2-oxo-2-(2,4,6-trichlorophenyl)ethyl)carbamoyl)-5-(trifluoromethyl)pyrazol-1-yl)bicyclo[2.2.2]octane-1-carboxylic acid]",11500 pM
14,"CC1(C)[C@@H]2C[C@H](N(CC(=O)c3c(Cl)cccc3C(F)(F)F)C(=O)c3cnn(C45CCC(C(=O)O)(CC4)CC5)c3C(F)(F)F)C[C@@H]21 [Example 247, 4-(4-((2-(2-chloro-6-(trifluoromethyl)phenyl)-2-oxoethyl)-((1R,3r,5S)-6,6-dimethyl-3-bicyclo[3.1.0]hexanyl)carbamoyl)-5-(trifluoromethyl)pyrazol-1-yl)bicyclo[2.2.2]octane-1-carboxylic acid]",32400 pM
15,"COc1cccc(Cl)c1C(=O)CN(C(=O)c1cnn(C23CCC(C(=O)O)(CC2)CC3)c1C(F)(F)F)[C@H]1C[C@@H]2[C@H](C1)C2(C)C [Example 248, 4-(4-((2-(2-chloro-6-methoxyphenyl)-2-oxoethyl)-((1R,3r,5S)-6,6-dimethyl-3-bicyclo[3.1.0]hexanyl)carbamoyl)-5-(trifluoromethyl)pyrazol-1-yl)bicyclo[2.2.2]octane-1-carboxylic acid]",21400 pM
16,"CC1(C)CC(CN(CC(=O)c2c(Cl)cc(F)cc2Cl)C(=O)c2cnn([C@H]3CC[C@](C)(C(=O)O)CC3)c2C(F)(F)F)C1 [Example 249, trans-4-(4-((2-(2,6-dichloro-4-fluorophenyl)-2-oxoethyl)-((3,3-dimethylcyclobutyl)methyl)carbamoyl)-5-(trifluoromethyl)pyrazol-1-yl)-1-methylcyclohexane-1-carboxylic acid]",< 3470 pM

# Source: patent US9365522B2, “Pyrazole amide derivative” (AMGEN INC., priority 2015, dated 2016)
